Patent US11484543B2, “Compositions and methods for diagnosing and treating diseases and disorders associated with mutant KCNJ5” (The Rockefeller University, priority 2017, dated 2022)
Numbering of substitutions follows the chain as printed. Read-outs that look alike come from different tables or passages of the source.

Experiments:
Type in all cases: cell-based
KCNJ5^G151R = molecular target: T1, KCNJ5^G151R (Homo sapiens, UniProt P48544, G151R); assay: cell-based; settings: for inhibition of KCNJ5^G151R by synthesized macrolide derivatives: tested as in FIG. 7 (FIGS. 9 and 10); for G151R maximum inhibition / G151R minimum inhibition / IC50: 10-point dilution 20 to 0.0391 μM, N=3, four-parameter fit
T1 construct: expressed in transfected cells
T1 sequence (P48544 1-419 G151R): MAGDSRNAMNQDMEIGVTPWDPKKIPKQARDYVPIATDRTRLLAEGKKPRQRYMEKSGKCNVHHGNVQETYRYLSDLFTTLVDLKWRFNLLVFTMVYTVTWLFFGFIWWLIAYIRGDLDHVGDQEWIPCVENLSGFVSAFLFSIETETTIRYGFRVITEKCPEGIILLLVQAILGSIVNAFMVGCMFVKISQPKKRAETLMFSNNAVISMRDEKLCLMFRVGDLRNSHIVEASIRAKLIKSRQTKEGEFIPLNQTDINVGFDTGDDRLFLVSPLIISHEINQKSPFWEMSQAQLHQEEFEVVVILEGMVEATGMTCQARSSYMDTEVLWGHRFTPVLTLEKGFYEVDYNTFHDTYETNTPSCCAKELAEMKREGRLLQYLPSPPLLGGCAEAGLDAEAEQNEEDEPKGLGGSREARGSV
Method: (§1) WT or mutant human KCNJ5 cDNAs (Choi et al., 2011, Science 331:768-772) were subcloned into the pcDNA5/FRT/TO vector using BamHI and HindIII. Single copies of WT or mutant human KCNJ5 cDNAs expressed under the control of tetracycline-inducible promoter were introduced into HEK293 cells using the Flp-in T-Rex System (Invitrogen) according to the manufacturer's instructions. Cells were grown in selective media containing 10% Tet-system approved FBS (Clontech) until induction.
(§2) Assay plates were centrifuged and incubated overnight at 37° C. 20 nL was transferred from the compound source plate to the cell assay plate using an Aquarius (Tecan) with a 384-well pin tool (V&P Scientific). The final concentration of compound for screening was 10 μM and the final DMSO concentration was 0.1%. 1 μL of tetracycline (final concentration 1 μg/mL) was added to compound containing and negative control wells by Multidrop Combi to induce expression. 1 μL of media was added to positive control wells. Assay plates were centrifuged and incubated for 72 hours at 37° C., 5% CO2. CellTiter-Glo (Promega) was used to measure cell viability in the assay wells according to the manufacturer's instructions. 10 μL/well of CellTiter-Glo reagent was added to the assay plates using a MultiDrop Combi. The plates were shaken on a Thermomixer R (Eppendorf) at 1100 rpm for 1 minute and incubated in the dark for 10 minutes at room temperature. Luminescence was read on an Envision plate reader (PerkinElmer) with 0.3 second sampling time per well. Raw data (luminescence counts per second) was normalized to percent effect by the formula 100−(((sample−negative control mean)/(positive control mean−negative control mean))*100).
(§3) Data was analyzed using the programs Excel (Microsoft) and Prism (GraphPad). Errors are SD unless otherwise indicated in the legend. Dose-response curves were fitted with a four-parameter logistic equation: F(x)=D+(A−D)/(1+(x/C)^B), with A=minimum inhibition B=Hill's slope C=inflection point D=maximum inhibition Synthesis of Macrolide Derivatives
(§4) Cellular ATP levels were measured as a proxy for cell viability, using a commercially available luciferase assay (Crouch et al., 1993, Proc. Natl. Acad. Sci. U.S.A. 109:2533-2538).
(§5) Conditions were designed to maximize reproducibility and the signal-to-background ratios (S/B) (Zhang et al., 1999, J. Biomol. Screen 4:67-73) comparing ATP level in uninduced and induced cells. Screening was performed in 384-well plates; compounds were added 24 hours after plating, and channel expression was induced immediately after compound addition. ATP levels were measured 72 hours after induction.
Levels of ATP in uninduced and induced cells without added test compound defined 100% and 0% effect, respectively, and served as a proxy for lethality.

KCNJ5^L168R = molecular target: T2, KCNJ5^L168R (Homo sapiens, UniProt P48544, L168R); assay: Cell viability assay (ATP, CellTiter-Glo): rescue of KCNJ5^L168R-induced lethality in inducible HEK293 cells; settings: for inhibition of KCNJ5^L168R by synthesized macrolide derivatives: tested as in FIG. 7 (FIGS. 9 and 10); for dose response on KCNJ5^L168R: tested at 1.1, 3.3 and 10 μM
T2 construct: expressed in transfected cells
T2 sequence (P48544 1-419 L168R): T1 sequence (P48544 1-419 G151R) with R151G, L168R
Method: as §1, §2, §3, §4, §5

KCNJ5^WT = molecular target: T3, KCNJ5^WT (Homo sapiens, UniProt P48544); assay: Membrane potential assay (FLIPR dye) in inducible KCNJ5^WT HEK293 cells; settings: for inhibition of KCNJ5^WT by synthesized macrolide derivatives: tested as in FIG. 7 (FIGS. 9 and 10); for WT IC50: 10-point dilution 20 to 0.0391 μM, N=3, four-parameter fit
T3 construct: expressed in transfected cells
T3 sequence (P48544 1-419): T1 sequence (P48544 1-419 G151R) with R151G
Method: as §1, with “Single” for “WT or mutant human KCNJ5 cDNAs (Choi et al., 2011, Science 331:768-772) were subcloned into the pcDNA5/FRT/TO vector using BamHI and HindIII. Single”
20 μL of WT cells were plated into sterile black with clear bottom tissue culture-treated 384-well plates (Corning) at a density of 10000 cells/well using a Multidrop Combi. Assay plates were centrifuged at 500 rpm for 10 seconds and incubated overnight at 37° C. in a humidified 5% CO2 incubator. After the overnight incubation, 1 μL of tetracycline (final conc. 1 μg/mL) was added to all wells by Multidrop Combi to induce KCNJ5. Assay plates were centrifuged at 500 rpm for 10 seconds and incubated overnight at 37° C. in a humidified 5% CO2 incubator. The next day, 10 μL of medium was removed from each well using a PlateMate Plus (Thermo Scientific). 10 μL of Blue Formula FLIPR membrane potential dye (Molecular Devices) was added to cells using a Multichannel pipettor. Assay plates were incubated for 30 minutes. at 37° C. After incubation, 20 nL was transferred twice from the compound source plate to the cell assay plate using an Aquarius with a 384-well pin tool for a total transfer volume of 40 nL and a final DMSO concentration of 0.2%. 1 μL of 20 mM BaCl2 was added to positive control wells using a Multichannel pipettor. The assay plate was incubated 20 minutes at room temperature in the dark.
Changes in membrane potential were detected using a well-established fluorescence-based measure of membrane potential (FIG. 4).

[1] = 10-point dilution 20 to 0.0391 μM, N=3, four-parameter fit

In the case of “N-demethyl-8,9-anhydroerythromycin A 6,9-hemiacetal [PLUX36]”, the “inhibition of KCNJ5^G151R by synthesized macrolide derivatives” value (KCNJ5^G151R) is reported as “significant inhibition”, the “inhibition of KCNJ5^L168R by synthesized macrolide derivatives” value (KCNJ5^L168R) is reported as “significant inhibition” and the “inhibition of KCNJ5^WT by synthesized macrolide derivatives” value (KCNJ5^WT) is reported as “no inhibition”.
Molecule `CC[C@H]1OC(=O)[C@H](C)[C@@H](O[C@H]2C[C@@](C)(OC)[C@@H](O)[C@H](C)O2)[C@H](C)[C@@H](O[C@@H]2O[C@H](C)C[C@H](N(C)C)[C@H]2O)[C@](C)(O)C[C@@H](C)CN(C)[C@H](C)[C@@H](O)[C@]1(C)O` [Azithromycin, azithromycin] has a G151R maximum inhibition (KCNJ5^G151R) of 32.00%, a G151R minimum inhibition (KCNJ5^G151R) of 5.11% and an IC50 (KCNJ5^G151R) of 5.69 µM. For the same molecule, the IC50 (KCNJ5^L168R; [1]) was 8.05 µM, the L168R maximum inhibition (KCNJ5^L168R; [1]) was 12.01% and the L168R minimum inhibition (KCNJ5^L168R; [1]) was 0.71%. The “WT IC50” value (KCNJ5^WT) was “No fit”.
In the case of `CCCCN(C)[C@H]1C[C@@H](C)O[C@@H](O[C@@H]2[C@@H](C)[C@H](O[C@H]3C[C@@](C)(OC)[C@@H](O)[C@H](C)O3)[C@@H](C)C(=O)O[C@H](CC)[C@@](C)(O)[C@H](O)[C@@H](C)[C@@H](O)[C@H](C)C[C@@]2(C)O)[C@@H]1O` [PLUX33, N-demethyl-9-deoxo-9-hydroxy-N-butyl-(9S)-erythromycin], the “inhibition of KCNJ5^G151R by synthesized macrolide derivatives” value (KCNJ5^G151R) is reported as “significant inhibition”, the “inhibition of KCNJ5^L168R by synthesized macrolide derivatives” value (KCNJ5^L168R) is reported as “significant inhibition” and the “inhibition of KCNJ5^WT by synthesized macrolide derivatives” value (KCNJ5^WT) is reported as “no inhibition”.
`CC[C@H]1OC(=O)[C@H](C)[C@@H](O[C@H]2C[C@@](C)(OC)[C@@H](O)[C@H](C)O2)[C@H](C)[C@@H](O[C@@H]2O[C@H](C)C[C@H](NC)[C@H]2O)[C@](C)(O)C[C@@H](C)/C(=N\OCOCCOC)[C@H](C)[C@@H](O)[C@]1(C)O` [N-demethyl Roxithromycin, N-demethyl roxithromycin] showed a G151R maximum inhibition (KCNJ5^G151R) of 96.20%, a G151R minimum inhibition (KCNJ5^G151R) of 4.50% and an IC50 (KCNJ5^G151R) of 0.82 µM. The IC50 (KCNJ5^L168R; [1]) was 1.18 µM, the L168R maximum inhibition (KCNJ5^L168R; [1]) was 76.95% and the L168R minimum inhibition (KCNJ5^L168R; [1]) was 1.12%. For the same molecule, the “dose response on KCNJ5^L168R” value (KCNJ5^L168R) was “showed a dose response” and the “WT IC50” value (KCNJ5^WT) was “No fit”.
`CC[C@H]1OC(=O)[C@H](C)[C@@H](O[C@H]2C[C@@](C)(OC)[C@@H](O)[C@H](C)O2)[C@H](C)[C@@H](O[C@@H]2O[C@H](C)C[C@H](N(C)C)[C@H]2O)[C@](C)(O)C[C@@H](C)C(=O)[C@H](C)[C@@H](O)[C@]1(C)O` [Erythromycin, erythromycin] was tested, and the G151R maximum inhibition (KCNJ5^G151R) was 90.00%, the G151R minimum inhibition (KCNJ5^G151R) was 3.55% and the IC50 (KCNJ5^G151R) was 10.5 µM. For the same molecule, the viability at 10 µM (KCNJ5^G151R; HEK293, 72 h, mean of primary screen and hit pick, read-out: mean % effect) was 73%, the viability at 10 µM (KCNJ5^G151R; HEK293, ATP level 72 h after induction, uninduced = 100%, induced = 0% effect, first of the two runs (primary screen / hit pick), read-out: % effect (1)) was 91.9% and the viability at 10 µM (KCNJ5^G151R; HEK293, ATP level 72 h after induction, uninduced = 100%, induced = 0% effect, second of the two runs (primary screen / hit pick, confirmatory testing), read-out: % effect (2)) was 54.2%. It also gave an IC50 (KCNJ5^L168R; [1]) of 11.8 µM, an L168R maximum inhibition (KCNJ5^L168R; [1]) of 25.00% and an L168R minimum inhibition (KCNJ5^L168R; [1]) of 0.71%. For the same molecule, the “dose response on KCNJ5^L168R” value (KCNJ5^L168R) was “showed a dose response” and the “WT IC50” value (KCNJ5^WT) was “No fit”.
`CC[C@@H](O)[C@@](C)(O)[C@@H]1OC(=O)[C@H](C)[C@@H](O[C@H]2C[C@@](C)(OC)[C@@H](O)[C@H](C)O2)[C@H](C)[C@@H](O[C@@H]2O[C@H](C)C[C@H](N(C)C)[C@H]2O)[C@@]2(C)CC(C)=C(O2)[C@@H]1C` [Pseudo Erythromycin A Enol Ether, pseudo erythromycin A enol ether] gave a G151R maximum inhibition (KCNJ5^G151R) of 11.13%, a G151R minimum inhibition (KCNJ5^G151R) of 1.58% and an IC50 (KCNJ5^G151R) of 0.65 µM. The “L168R IC50” value (KCNJ5^L168R; [1]) was “No Fit” and the “WT IC50” value (KCNJ5^WT) was “No fit”.
Work on `CC[C@H]1OC(=O)[C@H](C)[C@@H](O[C@H]2C[C@@](C)(OC)[C@@H](O)[C@H](C)O2)[C@H](C)[C@@H](O[C@@H]2O[C@H](C)C[C@H](N(C)C)[C@H]2O)[C@](C)(O)C[C@@H](C)C(=O)[C@H](C)[C@@H](O)[C@H]1C` [Erythromycin B, erythromycin B] yielded a G151R maximum inhibition (KCNJ5^G151R) of 84.36%, a G151R minimum inhibition (KCNJ5^G151R) of 7.15% and an IC50 (KCNJ5^G151R) of 1.23 µM. It also gave an IC50 (KCNJ5^L168R; [1]) of 4.73 µM, an L168R maximum inhibition (KCNJ5^L168R; [1]) of 80.00% and an L168R minimum inhibition (KCNJ5^L168R; [1]) of 1.62%. The “WT IC50” value (KCNJ5^WT) was “No fit”.
`CC[C@H]1OC(=O)[C@H](C)[C@@H](O[C@H]2C[C@@](C)(OC)[C@@H](O)[C@H](C)O2)[C@H](C)[C@@H](O[C@@H]2O[C@H](C)C[C@H](N(C)C(C)C)[C@H]2O)[C@@]2(C)CC(C)=C(O2)[C@H](C)[C@@H](O)[C@]1(C)O` [Idremcinal, idremcinal] gave a G151R maximum inhibition (KCNJ5^G151R) of 93.39%, a G151R minimum inhibition (KCNJ5^G151R) of 6.38% and an IC50 (KCNJ5^G151R) of 0.6 µM. For the same molecule, the IC50 (KCNJ5^L168R; [1]) was 1.99 µM, the L168R maximum inhibition (KCNJ5^L168R; [1]) was 66.69% and the L168R minimum inhibition (KCNJ5^L168R; [1]) was −1.28%. For the same molecule, the “WT IC50” value (KCNJ5^WT) was “No fit” and the “WT IC50” value (KCNJ5^WT; listed as idremcinal) was “no dose response”.
